Results reported in patent US9492471B2, “Methods of treating a disease or disorder associated with Bruton'S Tyrosine Kinase” (Celgene Avilomics Research, Inc., priority 2013, dated 2016).
Where two headings read alike, the source gives them in different places.

Assays:
Assay in all cases: HotSpot kinase profiling
Format in all cases: biochemical
STK16 = target: T1, STK16 (Homo sapiens, UniProt O75716)
T1 construct: purchased Reaction Biology Corp
How it was run: (§1)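 Radiometric kinase assay with P81 filter capture; each kinase was added to fresh substrate plus cofactors in reaction buffer and incubated 2 h at room temperature. Unreacted phosphate was washed off with 0.1% phosphoric acid before detection; percent inhibition is relative to DMSO control, averaged over replicates.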

SNARK/NUAK2 = target: T2, SNARK/NUAK2 (Homo sapiens, UniProt Q9H093)
T2 construct: purchased Reaction Biology Corp
T2 sequence (Q9H093 1-628): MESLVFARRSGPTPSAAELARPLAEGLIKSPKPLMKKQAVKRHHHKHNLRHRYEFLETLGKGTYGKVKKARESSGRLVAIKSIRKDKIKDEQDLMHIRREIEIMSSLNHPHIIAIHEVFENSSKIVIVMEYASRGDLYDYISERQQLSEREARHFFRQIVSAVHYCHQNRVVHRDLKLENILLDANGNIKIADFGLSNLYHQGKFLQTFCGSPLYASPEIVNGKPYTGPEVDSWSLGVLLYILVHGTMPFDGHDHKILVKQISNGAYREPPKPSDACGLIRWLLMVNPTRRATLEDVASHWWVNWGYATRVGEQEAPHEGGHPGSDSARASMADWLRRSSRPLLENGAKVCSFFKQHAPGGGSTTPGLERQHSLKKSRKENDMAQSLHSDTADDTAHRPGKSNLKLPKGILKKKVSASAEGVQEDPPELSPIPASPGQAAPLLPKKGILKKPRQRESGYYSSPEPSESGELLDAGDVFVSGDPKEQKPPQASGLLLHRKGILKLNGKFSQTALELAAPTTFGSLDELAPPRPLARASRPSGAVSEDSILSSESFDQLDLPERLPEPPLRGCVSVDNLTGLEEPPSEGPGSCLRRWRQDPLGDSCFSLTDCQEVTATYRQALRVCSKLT
How it was run: as §1

BRSK1 = target: T3, BRSK1 (Homo sapiens, UniProt Q8TDC3)
T3 construct: purchased Reaction Biology Corp
T3 sequence (Q8TDC3 1-778): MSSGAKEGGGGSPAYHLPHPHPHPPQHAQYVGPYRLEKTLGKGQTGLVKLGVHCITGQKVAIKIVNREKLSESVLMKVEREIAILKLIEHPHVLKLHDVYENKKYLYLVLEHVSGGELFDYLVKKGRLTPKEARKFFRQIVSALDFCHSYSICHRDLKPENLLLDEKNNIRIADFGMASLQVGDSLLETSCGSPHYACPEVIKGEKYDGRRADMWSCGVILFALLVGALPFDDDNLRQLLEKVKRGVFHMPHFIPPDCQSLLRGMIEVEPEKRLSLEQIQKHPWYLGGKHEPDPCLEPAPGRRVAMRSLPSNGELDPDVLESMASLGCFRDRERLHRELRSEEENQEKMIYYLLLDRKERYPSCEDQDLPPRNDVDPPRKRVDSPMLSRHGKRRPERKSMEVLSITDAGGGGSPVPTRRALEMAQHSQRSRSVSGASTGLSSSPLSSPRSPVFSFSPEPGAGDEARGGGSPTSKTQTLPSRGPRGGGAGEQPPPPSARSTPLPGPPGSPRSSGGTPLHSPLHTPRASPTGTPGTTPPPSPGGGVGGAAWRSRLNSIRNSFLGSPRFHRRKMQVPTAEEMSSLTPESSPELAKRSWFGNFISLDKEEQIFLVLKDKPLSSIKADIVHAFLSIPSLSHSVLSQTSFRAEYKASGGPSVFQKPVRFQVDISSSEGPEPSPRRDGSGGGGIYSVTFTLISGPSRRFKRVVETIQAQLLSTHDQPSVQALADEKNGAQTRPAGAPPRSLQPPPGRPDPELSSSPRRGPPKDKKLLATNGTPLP
How it was run: as §1

ERK2/MAPK1 = target: T4, ERK2/MAPK1 (Homo sapiens, UniProt P28482)
T4 construct: purchased Reaction Biology Corp
How it was run: as §1

RAF1 = conditions: 3 μM
How it was run: as §1

FGFR4 = target: T5, FGFR4 (Homo sapiens, UniProt P22455)
T5 construct: purchased Reaction Biology Corp
How it was run: as §1

MNK1 = target: T6, MNK1 (Homo sapiens, UniProt Q9BUB5)
T6 construct: purchased Reaction Biology Corp
How it was run: as §1

FES/FPS = target: T7, FES/FPS (Homo sapiens, UniProt P07332)
T7 construct: purchased Reaction Biology Corp
How it was run: as §1

MEK1 = target: T8, MEK1 (Homo sapiens, UniProt Q02750)
T8 construct: purchased Reaction Biology Corp
How it was run: as §1

PIM1 = target: T9, PIM1 (Homo sapiens, UniProt P11309)
T9 construct: purchased Reaction Biology Corp
How it was run: as §1

ACK1 = target: T10, ACK1 (Homo sapiens, UniProt Q07912)
T10 construct: purchased Reaction Biology Corp
How it was run: as §1

[1] = read-out: % Enzyme Activity (relative to DMSO controls) Run 1
[2] = read-out: % Enzyme Activity (relative to DMSO controls) Run 2

T5 sequence (P22455 22-802): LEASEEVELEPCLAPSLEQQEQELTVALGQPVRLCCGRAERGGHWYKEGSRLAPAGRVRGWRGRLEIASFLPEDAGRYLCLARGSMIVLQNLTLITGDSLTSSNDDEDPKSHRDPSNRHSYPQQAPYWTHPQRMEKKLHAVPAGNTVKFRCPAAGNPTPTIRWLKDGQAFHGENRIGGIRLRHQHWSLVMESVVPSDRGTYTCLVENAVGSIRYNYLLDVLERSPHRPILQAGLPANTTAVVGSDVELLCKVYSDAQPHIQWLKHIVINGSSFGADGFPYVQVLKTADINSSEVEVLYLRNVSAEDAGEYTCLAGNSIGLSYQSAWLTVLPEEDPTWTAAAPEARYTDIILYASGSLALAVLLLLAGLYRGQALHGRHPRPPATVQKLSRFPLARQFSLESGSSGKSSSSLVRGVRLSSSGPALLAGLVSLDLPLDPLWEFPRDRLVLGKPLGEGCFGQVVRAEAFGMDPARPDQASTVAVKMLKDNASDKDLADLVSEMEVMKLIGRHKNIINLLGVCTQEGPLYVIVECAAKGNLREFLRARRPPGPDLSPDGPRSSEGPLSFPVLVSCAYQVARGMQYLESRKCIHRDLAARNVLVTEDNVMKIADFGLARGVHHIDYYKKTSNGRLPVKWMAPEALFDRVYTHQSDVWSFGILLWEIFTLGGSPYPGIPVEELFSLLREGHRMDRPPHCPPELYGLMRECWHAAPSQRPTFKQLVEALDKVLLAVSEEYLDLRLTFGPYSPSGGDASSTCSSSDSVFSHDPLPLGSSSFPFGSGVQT
T4 sequence (P28482 whole entry): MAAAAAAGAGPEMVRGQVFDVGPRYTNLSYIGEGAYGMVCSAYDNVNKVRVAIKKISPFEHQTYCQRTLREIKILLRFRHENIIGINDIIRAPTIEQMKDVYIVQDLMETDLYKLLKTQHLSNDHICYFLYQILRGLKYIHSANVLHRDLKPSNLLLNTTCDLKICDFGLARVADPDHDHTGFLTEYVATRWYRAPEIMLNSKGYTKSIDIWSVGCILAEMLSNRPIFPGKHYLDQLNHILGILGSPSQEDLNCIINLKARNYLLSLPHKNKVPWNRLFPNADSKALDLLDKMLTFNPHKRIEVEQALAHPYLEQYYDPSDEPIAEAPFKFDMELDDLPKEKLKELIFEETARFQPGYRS
T8 sequence (Q02750 whole entry): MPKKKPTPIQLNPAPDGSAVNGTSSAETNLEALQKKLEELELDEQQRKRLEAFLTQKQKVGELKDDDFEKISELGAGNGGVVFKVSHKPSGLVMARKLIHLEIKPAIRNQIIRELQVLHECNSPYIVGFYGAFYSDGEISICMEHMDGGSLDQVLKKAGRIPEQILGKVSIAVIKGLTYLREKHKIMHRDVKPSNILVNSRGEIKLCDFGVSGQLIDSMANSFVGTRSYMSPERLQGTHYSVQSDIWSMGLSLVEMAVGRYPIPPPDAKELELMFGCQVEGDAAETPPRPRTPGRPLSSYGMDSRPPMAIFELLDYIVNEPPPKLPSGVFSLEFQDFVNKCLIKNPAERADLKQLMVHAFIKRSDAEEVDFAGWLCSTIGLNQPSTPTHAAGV
T1 sequence (O75716 whole entry): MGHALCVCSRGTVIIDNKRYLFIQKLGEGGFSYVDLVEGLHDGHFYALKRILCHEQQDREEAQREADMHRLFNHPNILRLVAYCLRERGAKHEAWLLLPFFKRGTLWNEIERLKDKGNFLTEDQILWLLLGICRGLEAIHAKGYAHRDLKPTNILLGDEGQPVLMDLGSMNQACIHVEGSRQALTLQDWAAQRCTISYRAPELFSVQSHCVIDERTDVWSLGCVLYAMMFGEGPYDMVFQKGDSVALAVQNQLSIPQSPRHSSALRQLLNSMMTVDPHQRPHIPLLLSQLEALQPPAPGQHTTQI
T9 sequence (P11309 whole entry): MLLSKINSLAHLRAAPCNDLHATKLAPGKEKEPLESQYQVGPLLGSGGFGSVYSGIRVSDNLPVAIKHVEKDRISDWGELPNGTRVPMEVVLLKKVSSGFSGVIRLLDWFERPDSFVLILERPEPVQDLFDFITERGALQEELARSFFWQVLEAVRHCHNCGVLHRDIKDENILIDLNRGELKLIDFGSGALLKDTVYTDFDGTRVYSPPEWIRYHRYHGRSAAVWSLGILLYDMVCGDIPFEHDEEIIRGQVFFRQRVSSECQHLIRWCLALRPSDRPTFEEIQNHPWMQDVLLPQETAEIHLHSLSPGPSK
T6 sequence (Q9BUB5 whole entry): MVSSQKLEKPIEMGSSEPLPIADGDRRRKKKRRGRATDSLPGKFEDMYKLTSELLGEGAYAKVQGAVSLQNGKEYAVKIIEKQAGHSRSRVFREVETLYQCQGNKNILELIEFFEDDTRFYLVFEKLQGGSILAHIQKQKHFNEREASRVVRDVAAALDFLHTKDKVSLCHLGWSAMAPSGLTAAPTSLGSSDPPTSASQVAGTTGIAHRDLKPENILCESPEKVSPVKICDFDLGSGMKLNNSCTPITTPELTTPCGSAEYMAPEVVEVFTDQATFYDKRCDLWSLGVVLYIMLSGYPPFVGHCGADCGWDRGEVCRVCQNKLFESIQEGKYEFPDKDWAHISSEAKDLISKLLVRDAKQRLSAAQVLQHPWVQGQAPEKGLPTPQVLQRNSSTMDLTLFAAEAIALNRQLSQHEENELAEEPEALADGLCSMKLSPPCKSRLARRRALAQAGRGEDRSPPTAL
T10 sequence (Q07912 whole entry): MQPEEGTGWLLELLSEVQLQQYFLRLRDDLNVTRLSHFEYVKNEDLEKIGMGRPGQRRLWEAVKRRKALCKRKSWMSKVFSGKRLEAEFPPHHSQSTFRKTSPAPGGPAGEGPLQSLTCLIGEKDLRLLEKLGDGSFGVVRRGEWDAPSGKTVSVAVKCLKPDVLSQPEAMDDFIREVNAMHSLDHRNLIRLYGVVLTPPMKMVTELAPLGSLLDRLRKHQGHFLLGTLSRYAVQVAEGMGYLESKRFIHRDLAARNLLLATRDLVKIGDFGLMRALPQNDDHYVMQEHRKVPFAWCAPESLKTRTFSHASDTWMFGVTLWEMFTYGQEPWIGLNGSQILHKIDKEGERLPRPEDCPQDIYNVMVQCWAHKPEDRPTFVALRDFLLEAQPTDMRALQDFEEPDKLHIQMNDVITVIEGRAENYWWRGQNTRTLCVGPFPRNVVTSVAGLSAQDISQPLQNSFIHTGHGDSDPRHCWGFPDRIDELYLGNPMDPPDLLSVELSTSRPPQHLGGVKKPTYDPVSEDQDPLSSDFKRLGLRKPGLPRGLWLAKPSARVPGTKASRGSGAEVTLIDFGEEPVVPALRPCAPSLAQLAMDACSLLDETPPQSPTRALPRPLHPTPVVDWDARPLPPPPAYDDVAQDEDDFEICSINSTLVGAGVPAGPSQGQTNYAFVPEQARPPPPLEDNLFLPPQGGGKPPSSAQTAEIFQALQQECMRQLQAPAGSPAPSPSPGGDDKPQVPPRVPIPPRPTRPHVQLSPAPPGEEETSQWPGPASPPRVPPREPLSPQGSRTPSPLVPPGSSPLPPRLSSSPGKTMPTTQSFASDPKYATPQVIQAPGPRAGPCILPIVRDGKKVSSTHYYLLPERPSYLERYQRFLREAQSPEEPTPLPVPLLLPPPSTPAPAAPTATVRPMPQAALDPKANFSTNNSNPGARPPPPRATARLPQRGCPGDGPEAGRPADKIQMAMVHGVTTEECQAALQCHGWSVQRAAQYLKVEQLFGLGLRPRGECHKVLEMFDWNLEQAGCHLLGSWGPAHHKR
T7 sequence (P07332 whole entry): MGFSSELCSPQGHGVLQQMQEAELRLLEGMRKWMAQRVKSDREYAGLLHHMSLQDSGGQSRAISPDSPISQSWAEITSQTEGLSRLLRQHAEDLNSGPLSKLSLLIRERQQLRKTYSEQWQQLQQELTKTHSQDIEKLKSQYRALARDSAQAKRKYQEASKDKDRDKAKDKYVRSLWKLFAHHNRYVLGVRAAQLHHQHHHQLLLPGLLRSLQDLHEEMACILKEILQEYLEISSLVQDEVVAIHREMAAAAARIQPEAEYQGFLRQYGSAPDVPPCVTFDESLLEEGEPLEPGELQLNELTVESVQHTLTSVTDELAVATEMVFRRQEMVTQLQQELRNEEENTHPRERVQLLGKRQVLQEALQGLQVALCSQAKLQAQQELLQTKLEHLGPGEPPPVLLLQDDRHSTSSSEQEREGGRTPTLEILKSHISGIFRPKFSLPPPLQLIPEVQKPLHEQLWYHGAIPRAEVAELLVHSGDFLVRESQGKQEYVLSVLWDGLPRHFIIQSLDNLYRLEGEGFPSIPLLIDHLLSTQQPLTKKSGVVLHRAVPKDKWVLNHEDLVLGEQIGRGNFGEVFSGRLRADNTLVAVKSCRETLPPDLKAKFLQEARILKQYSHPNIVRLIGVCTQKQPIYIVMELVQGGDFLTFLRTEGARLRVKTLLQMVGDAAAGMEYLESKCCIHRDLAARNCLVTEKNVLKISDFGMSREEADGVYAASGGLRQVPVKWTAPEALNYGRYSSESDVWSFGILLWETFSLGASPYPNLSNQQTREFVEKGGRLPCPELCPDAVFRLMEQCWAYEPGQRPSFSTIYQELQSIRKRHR

C=CC(=O)Nc1cccc(Nc2nc(Nc3ccc(OCCOC)c(F)c3)ncc2F)c1 [Compound 2]
inhibition at 3 µM (STK16): 78% | remaining activity at 3 µM (STK16; [1]): 22.9% | remaining activity at 3 µM (STK16; [2]): 21% | inhibition at 3 µM (SNARK/NUAK2): 15.7% | remaining activity at 3 µM (SNARK/NUAK2; [1]): 83.7% | remaining activity at 3 µM (SNARK/NUAK2; [2]): 84.9% | inhibition at 3 µM (BRSK1): 11.8% | remaining activity at 3 µM (BRSK1; [1]): 87.1% | remaining activity at 3 µM (BRSK1; [2]): 89.4% | inhibition at 3 µM (ERK2/MAPK1): -4.25% | remaining activity at 3 µM (ERK2/MAPK1; [1]): 106% | remaining activity at 3 µM (ERK2/MAPK1; [2]): 103% | % Enzyme Activity (relative to DMSO controls) Run 1 (RAF1): 83.34% | % Enzyme Activity (relative to DMSO controls) Run 2 (RAF1): 83.62% | Average % Inhibition (RAF1): 16.52% | inhibition at 3 µM (FGFR4): 35.1% | remaining activity at 3 µM (FGFR4; [1]): 66.3% | remaining activity at 3 µM (FGFR4; [2]): 63.4% | inhibition at 3 µM (MNK1): 3.98% | remaining activity at 3 µM (MNK1; [1]): 97.8% | remaining activity at 3 µM (MNK1; [2]): 94.3% | inhibition at 3 µM (FES/FPS): 35% | remaining activity at 3 µM (FES/FPS; [1]): 64% | remaining activity at 3 µM (FES/FPS; [2]): 66% | inhibition at 3 µM (MEK1): -10.3% | remaining activity at 3 µM (MEK1; [1]): 109% | remaining activity at 3 µM (MEK1; [2]): 112% | inhibition at 3 µM (PIM1): -3.82% | remaining activity at 3 µM (PIM1; [1]): 104% | remaining activity at 3 µM (PIM1; [2]): 104% | inhibition at 3 µM (ACK1): 77.5% | remaining activity at 3 µM (ACK1; [1]): 22.6% | remaining activity at 3 µM (ACK1; [2]): 22.5%
